Laboratory results taken from PubChem BioAssay AID1963960 (Molecular Pharmacology Branch, DTP, NCI, 2024).

Tested on: MDA-MB-468 spheroids with HUVEC/MSC, viability
Experiment: Anticancer human tumor MDA-MB-468 cell line growth inhibition [PI3K];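 further: spheroids exposed to agents for seven days before readout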;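 on viability, T/C: 100% = DMSO vehicle control viability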
Details: for IC50: curve of first compound; for viability, T/C: stronger effect = lower value; active means viability on the fitted dose curve at most 10% of control; inactive means the rest
How it was run: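 Tumor cells grown as multi-cell spheroids with HUVEC endothelial cells and MSC fibroblast-like stroma were treated with targeted agents combined with inavolisib, alpelisib, duvelisib or copanlisib. Doses fell in half-log steps from near clinical Cmax, else from 10 microM. Viability was measured.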

[1] = second compound 0.0316 µM, first compound 0.0316 µM
[2] = second compound 0.0316 µM, first compound 0.1 µM
[3] = second compound 0.0316 µM, first compound 0.316 µM
[4] = second compound 0.0316 µM, first compound 1 µM
[5] = second compound 0.0316 µM, first compound 3.16 µM
[6] = second compound 0.0316 µM, first compound 10 µM
[7] = second compound 0.1 µM, first compound 0.0316 µM
[8] = second compound 0.1 µM, first compound 0.1 µM
[9] = second compound 0.1 µM, first compound 0.316 µM
[10] = second compound 0.1 µM, first compound 1 µM
[11] = second compound 0.1 µM, first compound 3.16 µM
[12] = second compound 0.1 µM, first compound 10 µM
[13] = second compound 0.316 µM, first compound 0.0316 µM
[14] = second compound 0.316 µM, first compound 0.1 µM
[15] = second compound 0.316 µM, first compound 0.316 µM
[16] = second compound 0.316 µM, first compound 1 µM
[17] = second compound 0.316 µM, first compound 3.16 µM
[18] = second compound 0.316 µM, first compound 10 µM
[19] = second compound 1 µM, first compound 0.0316 µM
[20] = second compound 1 µM, first compound 0.1 µM
[21] = second compound 1 µM, first compound 0.316 µM
[22] = second compound 1 µM, first compound 1 µM
[23] = second compound 1 µM, first compound 3.16 µM
[24] = second compound 1 µM, first compound 10 µM
[25] = second compound 3.16 µM, first compound 0.0316 µM
[26] = second compound 3.16 µM, first compound 0.1 µM
[27] = second compound 3.16 µM, first compound 0.316 µM
[28] = second compound 3.16 µM, first compound 1 µM
[29] = second compound 3.16 µM, first compound 3.16 µM
[30] = second compound 3.16 µM, first compound 10 µM
[31] = second compound 10 µM, first compound 0.0316 µM
[32] = second compound 10 µM, first compound 0.1 µM
[33] = second compound 10 µM, first compound 0.316 µM
[34] = second compound 10 µM, first compound 1 µM
[35] = second compound 10 µM, first compound 3.16 µM
[36] = second compound 10 µM, first compound 10 µM

C[C@@H](NC(=O)c1ncnc(N)c1Cl)c1ncc(C(=O)Nc2cc(C(F)(F)F)c(Cl)cn2)s1 + Cc1nc(NC(=O)N2CCCC2C(N)=O)sc1-c1ccnc(C(C)(C)C(F)(F)F)c1
< 31.6 nM: IC50 (second compound 10 µM)
inactive: viability, T/C [1] 75.5% | viability, T/C [2] 109% | viability, T/C [3] 85.4% | viability, T/C [4] 117% | viability, T/C [5] 89.7% | viability, T/C [6] 82.8% | viability, T/C [7] 88.4% | viability, T/C [8] 89.2% | viability, T/C [9] 86.4% | viability, T/C [10] 119% | viability, T/C [11] 95% | viability, T/C [12] 85.2% | viability, T/C [13] 107% | viability, T/C [14] 92.2% | viability, T/C [15] 78.8% | viability, T/C [16] 98.3% | viability, T/C [17] 85.3% | viability, T/C [18] 68.6% | viability, T/C [19] 91.9% | viability, T/C [20] 71.8% | viability, T/C [21] 72.7% | viability, T/C [22] 75.7% | viability, T/C [23] 69.1% | viability, T/C [24] 61.6% | viability, T/C [25] 84.7% | viability, T/C [26] 59.2% | viability, T/C [27] 74.8% | viability, T/C [28] 61.4% | viability, T/C [29] 59.3% | viability, T/C [30] 46.8% | viability, T/C [31] 40.2% | viability, T/C [32] 31.9% | viability, T/C [33] 39.3% | viability, T/C [34] 35.4% | viability, T/C [35] 34% | viability, T/C [36] 17.1%
9150 nM: IC50 (second compound 3.16 µM)
> 10000 nM: IC50 (second compound 0.0316 µM) | IC50 (second compound 0.1 µM) | IC50 (second compound 0.316 µM) | IC50 (second compound 1 µM)

Cn1ncc(Cl)c1-c1cc(C(=O)NC(CN)Cc2cccc(F)c2)sc1Cl (stereo unspecified) + Cc1nc(NC(=O)N2CCCC2C(N)=O)sc1-c1ccnc(C(C)(C)C(F)(F)F)c1
327 nM: IC50 (second compound 0.0316 µM)
inactive: viability, T/C [1] 84.6% | viability, T/C [2] 78.8% | viability, T/C [3] 37.8% | viability, T/C [4] 33.1% | viability, T/C [5] 29.8% | viability, T/C [7] 78.1% | viability, T/C [8] 62.4% | viability, T/C [9] 41.2% | viability, T/C [10] 36% | viability, T/C [11] 27.5% | viability, T/C [13] 80.2% | viability, T/C [14] 76.9% | viability, T/C [15] 40.1% | viability, T/C [16] 30.1% | viability, T/C [17] 19.7% | viability, T/C [19] 91.3% | viability, T/C [20] 68% | viability, T/C [21] 39.3% | viability, T/C [22] 26.1% | viability, T/C [23] 19.3% | viability, T/C [25] 66.7% | viability, T/C [26] 43.6% | viability, T/C [27] 37.4% | viability, T/C [28] 20.8% | viability, T/C [29] 14.1% | viability, T/C [31] 38.3% | viability, T/C [32] 20.8% | viability, T/C [33] 20.6% | viability, T/C [34] 14.1%
active: viability, T/C [6] 0.69% | viability, T/C [12] 1.98% | viability, T/C [18] 3.34% | viability, T/C [24] 4.09% | viability, T/C [30] 2.32% | viability, T/C [35] 7.72% | viability, T/C [36] 0.4%
221 nM: IC50 (second compound 1 µM)
289 nM: IC50 (second compound 0.316 µM)
89.5 nM: IC50 (second compound 3.16 µM)
272 nM: IC50 (second compound 0.1 µM)
< 31.6 nM: IC50 (second compound 10 µM)

Cn1ncnc1[C@H]1c2n[nH]c(=O)c3cc(F)cc(c23)N[C@@H]1c1ccc(F)cc1 + Cc1nc(NC(=O)N2CCCC2C(N)=O)sc1-c1ccnc(C(C)(C)C(F)(F)F)c1
66.5 nM: IC50 (second compound 0.1 µM)
< 0.316 nM: IC50 (second compound 10 µM)
24.4 nM: IC50 (second compound 1 µM)
4.2 nM: IC50 (second compound 3.16 µM)
42.9 nM: IC50 (second compound 0.316 µM)
> 100 nM: IC50 (second compound 0.0316 µM)
inactive: viability, T/C (second compound 0.0316 µM, first compound 0.000316 µM) 88.3% | viability, T/C (second compound 0.0316 µM, first compound 0.001 µM) 79.8% | viability, T/C (second compound 0.0316 µM, first compound 0.00316 µM) 84.7% | viability, T/C (second compound 0.0316 µM, first compound 0.01 µM) 98.3% | viability, T/C [1] 84% | viability, T/C [2] 56.3% | viability, T/C (second compound 0.1 µM, first compound 0.000316 µM) 80.2% | viability, T/C (second compound 0.1 µM, first compound 0.001 µM) 93.7% | viability, T/C (second compound 0.1 µM, first compound 0.00316 µM) 81.9% | viability, T/C (second compound 0.1 µM, first compound 0.01 µM) 93% | viability, T/C [7] 62.7% | viability, T/C [8] 43% | viability, T/C (second compound 0.316 µM, first compound 0.000316 µM) 88% | viability, T/C (second compound 0.316 µM, first compound 0.001 µM) 76.6% | viability, T/C (second compound 0.316 µM, first compound 0.00316 µM) 83.7% | viability, T/C (second compound 0.316 µM, first compound 0.01 µM) 79.6% | viability, T/C [13] 52.5% | viability, T/C [14] 43% | viability, T/C (second compound 1 µM, first compound 0.000316 µM) 94.2% | viability, T/C (second compound 1 µM, first compound 0.001 µM) 78% | viability, T/C (second compound 1 µM, first compound 0.00316 µM) 62.9% | viability, T/C (second compound 1 µM, first compound 0.01 µM) 62% | viability, T/C [19] 46.1% | viability, T/C [20] 41.4% | viability, T/C (second compound 3.16 µM, first compound 0.000316 µM) 64.7% | viability, T/C (second compound 3.16 µM, first compound 0.001 µM) 60% | viability, T/C (second compound 3.16 µM, first compound 0.00316 µM) 50.4% | viability, T/C (second compound 3.16 µM, first compound 0.01 µM) 46.7% | viability, T/C [25] 37.6% | viability, T/C [26] 36.2% | viability, T/C (second compound 10 µM, first compound 0.000316 µM) 35.2% | viability, T/C (second compound 10 µM, first compound 0.001 µM) 25.9% | viability, T/C (second compound 10 µM, first compound 0.00316 µM) 31.2% | viability, T/C (second compound 10 µM, first compound 0.01 µM) 26.9% | viability, T/C [31] 20.3% | viability, T/C [32] 18.5%
